{"source": "patent US9585854B2", "about": "“N-acetyl-L-cysteine for use in in vitro fertilization” (IASOMAI AB, priority 2012, dated 2017)", "key": {"[1]": {"system": "pregnancy rates after IVF-ET", "conditions": "cited from earlier work"}, "[2]": {"system": "RGD recognition sites on integrins", "conditions": "cited from earlier work"}, "[3]": {"system": "Isolated uteri from virgin Wistar rats", "test": "isolated organ bath study of uterine contractions", "design": "species or system rat", "experimental": "Animals were kept at 22° C., housed 3 per cage and fed ad libitum. Isolated uteri from virgin Wistar rats (200-280 g) in estrous, which was determined by examination of a daily vaginal smear, were used.\nProtamine sulphate (PS) and NAC were dissolved in pure water.\nAll rats were sacrificed by cervical dislocation. The uterine horns were excised, carefully cleaned and mounted vertically in a 10 ml volume organ bath containing De Jalon's solution (NaCl 154 mM, KCl 5.6 mM, CaCl2×2H2O 0.41 mM, NaHCO 2 5.9 mM and glucose 2.8 mM), under 1 g tension, aerated with 95% oxygen and 5% carbon dioxide at 37° C. […] After 10 min increasing concentrations of PS were added until the total cessation of contractions was observed.\nMyometrial tension was recorded isometrically with an organ bath and transducer.\nEffects of treatments on uterine contractions were calculated as percentages for control, untreated and contracting conditions. Each data value is expressed as the mean±SEM. differences between groups were analyzed by two-way ANOVA. EC50 values were compared using one-way ANOVA"}, "[4]": {"system": "oxytocin antagonist; implantation after IVF", "conditions": "cited from earlier work"}, "embryo implantation": {"system": "embryo implantation", "test": "embryo implantation in oxytocin-treated mice", "type": "in vivo", "conditions": "mice given oxytocin", "source_text": "Indeed, in mice, NAC was confirmed to support embryo implantation. In the animal model, embryo implantation rate was decreased when the mice were given oxytocin.\nIn mice, NAC was confirmed to support embryo implantation. In the animal model, embryo implantation rate was decreased when the mice were given oxytocin."}}, "note": "Like-named read-outs stand apart in the source and are kept apart here. Where a SMILES comes first, the peptide text is derived from it. Bridges are numbered along the chain shown (N, C = ends). [ ]: non-standard residue; d: D form. Orn = NCCC[C@H](N)C(=O)O; Mpa = O=C(O)CCS", "data": [{"compound": "CC(=O)[C@H]1CC[C@H]2[C@@H]3CCC4=CC(=O)CC[C@]4(C)[C@H]3CC[C@]12C", "note": "[Progesterone]", "values": [{"measurement": "effect on pregnancy rates", "setting": "[1]", "value": "no benefit"}]}, {"compound": "CN1C(C(=O)Nc2ccccn2)=C(O)c2ccccc2S1(=O)=O", "note": "[piroxicam]", "values": [{"measurement": "effect on pregnancy rates", "setting": "[1]", "value": "positive effect"}]}, {"compound": "Arg-Gly-Asp (RGD) peptide [RGD peptide]", "values": [{"measurement": "rat blastocyst attachment to Ishikawa cells", "setting": "[2]; either the blastocysts or the Ishikawa cells pre-incubated", "value": "significant reduction in blastocyst attachment"}, {"measurement": "rat blastocyst attachment to Ishikawa cells", "setting": "[2]; pre-treatment of both blastocysts and Ishikawa cells", "value": "inhibited blastocyst attachment, but not completely"}]}, {"compound": "Protamine sulphate [PS]", "values": [{"measurement": "relaxation of uterine contractions", "setting": "[3]; calcium ion-induced uterine contractions", "value": "dose-dependent relaxation"}, {"measurement": "relaxation of uterine contractions", "setting": "[3]; spontaneously active uteri", "value": "dose-dependent relaxation"}, {"measurement": "EC50 for PS-treated uteri", "setting": "[3]; spontaneously active vs calcium ion-induced uteri", "value": "lower in spontaneously active uteri than in calcium ion-induced uteri"}]}, {"compound": "CCOc1ccc(C[C@H]2NC(=O)CCSSC[C@@H](C(=O)N3CCC[C@H]3C(=O)N[C@@H](CCCN)C(=O)NCC(N)=O)NC(=O)[C@H](CC(N)=O)NC(=O)[C@H]([C@@H](C)O)NC(=O)[C@H]([C@@H](C)CC)NC2=O)cc1", "note": "[atosiban] ([Mpa][dY](Et)ITNCP[Orn]G-NH2; disulfide 1-6)", "values": [{"measurement": "Implantation rates per embryo transferred", "setting": "[4]; total i.v. dose 37.5 mg before and up to 2 h after embryo transfer, placebo 12.6%", "value": 20.4, "unit": "%"}, {"measurement": "early miscarriages", "setting": "[4]; total i.v. dose 37.5 mg, placebo 24.4%", "value": 16.7, "unit": "%"}, {"measurement": "clinical pregnancy rates per cycle", "setting": "[4]; total i.v. dose 37.5 mg, placebo 28.9%", "value": 46.7, "unit": "%"}]}, {"compound": "CC(NCCc1ccc(O)cc1)C(O)c1ccc(O)cc1", "note": "(stereo not drawn) [ritodrine]", "values": [{"measurement": "effect on pregnancy rates", "setting": "[1]", "value": "positive effect"}]}, {"compound": "CC[C@H](C)[C@@H]1NC(=O)[C@H](Cc2ccc(O)cc2)NC(=O)[C@@H](N)CSSC[C@@H](C(=O)N2CCC[C@H]2C(=O)N[C@@H](CC(C)C)C(=O)NCC(N)=O)NC(=O)[C@H](CC(N)=O)NC(=O)[C@H](CCC(N)=O)NC1=O", "note": "[oxytocin]", "values": [{"measurement": "embryo implantation rate", "setting": "embryo implantation", "value": "decreased"}]}]}
